Results on one compound are retold here after ChEMBL document CHEMBL3045692, “Effectiveness of cyproconazole to control Armillaria root rot of apple, walnut and kiwifruit” (Crop Prot, 2012).

In assay [1] the test system is Armillaria mellea. The experiment in a line: Fungicidal activity against Armillaria mellea infected kiwifruit assessed as mycelial growth inhibition at 5 mg/l formulated as Caddy 10WP at 25 degC measured every week for 1 month (reference value: 0%). In kind it is functional. The settings on record: read-out: GI.
Assay [2] has as its system Armillaria mellea. The experiment in a line: Fungicidal activity against Armillaria mellea infected walnut assessed as mycelial growth inhibition at 30 mg/l formulated as Caddy 10WP at 25 degC measured every week for 1 month (reference value: 0%). The following applies: read-out: GI. In kind it is functional.
The test system of assay [3] is Armillaria mellea. Put plainly: Fungicidal activity against Armillaria mellea infected walnut assessed as mycelial growth inhibition at 10 mg/l formulated as Caddy 10WP at 25 degC measured every week for 1 month (reference value: 0%). In kind it is functional. The following applies: read-out: GI.
In assay [4] the test system is Armillaria mellea. Put plainly: Fungicidal activity against Armillaria mellea infected walnut assessed as mycelial growth inhibition at 5 mg/l formulated as Caddy 10WP at 25 degC measured every week for 1 month (reference value: 0%). In kind it is functional. The settings on record: read-out: GI.
For assay [5], the system named is Armillaria mellea. The experiment in a line: Fungicidal activity against Armillaria mellea infected walnut assessed as mycelial growth inhibition at 15 mg/l formulated as Caddy 10WP at 25 degC measured every week for 1 month (reference value: 0%). In kind it is functional. The settings on record: read-out: GI.
Assay [6] deals with Armillaria mellea. Put plainly: Fungicidal activity against Armillaria mellea infected kiwifruit assessed as mycelial growth inhibition at 10 mg/l formulated as Caddy 10WP at 25 degC measured every week for 1 month (reference value: 0%). In kind it is functional. The settings on record: read-out: GI.
For assay [7], the system named is Armillaria mellea. The experiment in a line: Fungicidal activity against Armillaria mellea infected kiwifruit assessed as mycelial growth inhibition at 30 mg/l formulated as Caddy 10WP at 25 degC measured every week for 1 month (reference value: 0%). In kind it is functional. The settings on record: read-out: GI.
Assay [8] concerns Armillaria mellea. Put plainly: Fungicidal activity against Armillaria mellea infected apple assessed as mycelial growth inhibition at 10 mg/l formulated as Caddy 10WP at 25 degC measured every week for 1 month (reference value: 0%). In kind it is functional. The settings on record: read-out: GI.
Assay [9] concerns Armillaria mellea. The experiment in a line: Fungicidal activity against Armillaria mellea infected kiwifruit assessed as mycelial growth inhibition at 15 mg/l formulated as Caddy 10WP at 25 degC measured every week for 1 month (reference value: 0%). In kind it is functional. The following applies: read-out: GI.
The subject of assay [10] is Armillaria mellea. The experiment in a line: Fungicidal activity against Armillaria mellea infected apple assessed as mycelial growth inhibition at 20 mg/l formulated as Caddy 10WP at 25 degC measured every week for 1 month (reference value: 0%). In kind it is functional. The settings on record: read-out: GI.
Assay [11] concerns Armillaria mellea. Put plainly: Fungicidal activity against Armillaria mellea infected walnut assessed as mycelial growth inhibition at 25 mg/l formulated as Caddy 10WP at 25 degC measured every week for 1 month (reference value: 0%). In kind it is functional. The following applies: read-out: GI.
Assay [12] has as its system Armillaria mellea. Put plainly: Fungicidal activity against Armillaria mellea infected apple assessed as mycelial growth inhibition at 5 mg/l formulated as Caddy 10WP at 25 degC measured every week for 1 month (reference value: 0%). In kind it is functional. The settings on record: read-out: GI.
For assay [13], the system named is Armillaria mellea. The experiment in a line: Fungicidal activity against Armillaria mellea infected apple assessed as mycelial growth inhibition at 15 mg/l formulated as Caddy 10WP at 25 degC measured every week for 1 month (reference value: 0%). In kind it is functional. The following applies: read-out: GI.
The test system of assay [14] is Armillaria mellea. The experiment in a line: Fungicidal activity against Armillaria mellea infected apple assessed as mycelial growth inhibition at Caddy 10WP formulation at 25 degC measured every week for 1 month. In kind it is functional, organism-based.
The test system of assay [15] is Armillaria mellea. Put plainly: Fungicidal activity against Armillaria mellea infected walnut assessed as mycelial growth inhibition at 20 mg/l formulated as Caddy 10WP at 25 degC measured every week for 1 month (reference value: 0%). In kind it is functional. The following applies: read-out: GI.
The subject of assay [16] is Armillaria mellea. The experiment in a line: Fungicidal activity against Armillaria mellea infected kiwifruit assessed as mycelial growth inhibition at 20 mg/l formulated as Caddy 10WP at 25 degC measured every week for 1 month (reference value: 0%). In kind it is functional. The settings on record: read-out: GI.
Assay [17] has as its system Armillaria mellea. Put plainly: Fungicidal activity against Armillaria mellea infected kiwifruit assessed as mycelial growth inhibition at 25 mg/l formulated as Caddy 10WP at 25 degC measured every week for 1 month (reference value: 0%). The settings on record: read-out: GI. In kind it is functional.
For assay [18], the system named is Armillaria mellea. The experiment in a line: Fungicidal activity against Armillaria mellea infected apple assessed as mycelial growth inhibition at 25 mg/l formulated as Caddy 10WP at 25 degC measured every week for 1 month (reference value: 0%). In kind it is functional. The settings on record: read-out: GI.
Assay [19] deals with Armillaria mellea. Put plainly: Fungicidal activity against Armillaria mellea infected apple assessed as mycelial growth inhibition at 30 mg/l formulated as Caddy 10WP at 25 degC measured every week for 1 month (reference value: 0%). In kind it is functional. The settings on record: read-out: GI.
Assay [20] deals with Armillaria mellea. The experiment in a line: Fungicidal activity against Armillaria mellea infected kiwifruit assessed as mycelial growth inhibition at Caddy 10WP formulation at 25 degC measured every week for 1 month. In kind it is functional, organism-based.
The subject of assay [21] is Armillaria mellea. The experiment in a line: Fungicidal activity against Armillaria mellea infected walnut assessed as mycelial growth inhibition at Caddy 10WP formulation at 25 degC measured every week for 1 month. In kind it is functional, organism-based.

Converted amounts (≈) assume the structure as drawn.

As to `CC(C1CC1)C(O)(Cn1cncn1)c1ccc(Cl)cc1` (stereo unspecified) [CYPROCONAZOLE], the inhibition of growth at 5 µg/mL is 47% with Armillaria mellea [1], 41% with Armillaria mellea [4] and 56% with Armillaria mellea [12]. Besides, the inhibition of growth at 30 µg/mL with Armillaria mellea [2], in the assay with Armillaria mellea [7] and in the assay on Armillaria mellea [19] was 100% throughout. Also, the inhibition of growth at 10 µg/mL in the assay on Armillaria mellea [3] is 73%; with Armillaria mellea [6] it was 86%; in the assay with Armillaria mellea [8], 89%. The inhibition of growth at 15 µg/mL is 95% in the assay on Armillaria mellea [5], 100% in the assay on Armillaria mellea [9] and 98% in the assay with Armillaria mellea [13]. The inhibition of growth at 20 µg/mL with Armillaria mellea [10], in the assay with Armillaria mellea [15] and in the assay on Armillaria mellea [16] was 100% each time. The inhibition of growth at 25 µg/mL in the assay with Armillaria mellea [11], with Armillaria mellea [17] and in the assay with Armillaria mellea [18] was 100% each time. Further, the concentration for a half-maximal effect (EC50) with Armillaria mellea [14] is 5.19 µg/mL (≈ 17.8 µM); in the assay with Armillaria mellea [20], 5.72 µg/mL (≈ 19.6 µM); with Armillaria mellea [21], 6.73 µg/mL (≈ 23.1 µM).

What is called EC50 is the midpoint of the concentration-response curve.
